Publication PMC10098121, “Amphipathic barbiturates as marine product mimics with cytolytic and immunogenic effects on head and neck squamous cell carcinoma cell lines” (Frontiers in Pharmacology, 2023)

Key:
HSC-3 cells = experiment: Flow cytometric detection of apoptosis (Annexin V/PI); type: cell-based, human; conditions: HSC-3, 24 h; cisplatin 50 µM, MPMs 5-20 µM
Procedure: HSC-3 and UT-SCC-24A cells were seeded, 300,000 cells/well, in 6-well plates and left to adhere overnight. The media was then removed and replaced by 2 ml complete DMEM/F-12 containing 5, 7.5, 10 or 20 µM of MPM-2:0, MPM-6:0, MPM-3:2 or MPM-4:2, or 50 µM cisplatin. Some cells were left untreated. The cells were then incubated for 24 h. Next, the cell supernatants were collected before the cells were trypsinized and spun down with the supernatants. For the staining, an apoptosis detection kit was used (#88-8005-74, Thermo Fisher Scientific). The cells were washed once in PBS and once in 1x binding buffer before being incubated with FITC labeled Annexin V diluted 1:25 in 1 × binding buffer for 15 min. Next the cells were washed in 1 × binding buffer before being incubated with PI diluted 1:100 in 1 × binding buffer for at least 5 min before analysis was performed on the LSR Fortessa (BD Biosciences, CA, United States). Analyses were performed in FlowJo™ v.10 (https://www.flowjo.com/).

[1] = system: cell surface calreticulin on HSC-3 cells; experiment: Flow cytometric detection of cell surface calreticulin; type: cell-based, human; conditions: HSC-3, 24 h; cisplatin 50 µM, MPMs 5-20 µM; vs untreated
Procedure: This procedure was based on a published method ([Liu et al., 2020]), but was performed with some modifications. Briefly, HSC-3 and UT-SCC-24A cells were seeded, 300,000 cells/well, in 6-well plates and left to adhere overnight. The media was then removed and replaced by 2 ml complete DMEM/F-12 containing 5, 7.5, 10 or 20 µM of MPM-2:0, MPM-6:0, MPM-3:2 or MPM-4:2, or 50 µM cisplatin. Some cells were left untreated. The cells were then incubated for 24 h. Next, the cell supernatants were collected before the cells were trypsinized and spun down with the supernatants. The cells were then washed in PBS before being incubated with the viability dye Zombie Violet (#423114, BioLegend, San Diego, CA, United States) diluted 1:500 in PBS for 20 min. Next, the cells were incubated with an anti-calreticulin antibody (#ab2907, Abcam) diluted 1:100 in FACS buffer (2%BSA in PBS) for 30 min. The cells were then fixed in 4% formaldehyde for 15 min and washed twice in FACS buffer before being incubated with the secondary antibody (#A11034, Thermo Fisher Scientific) diluted 1:250 in FACS buffer for 30 min. The cells were washed in FACS buffer and analyzed on a LSR Fortessa (BD Biosciences) within 1 week. Analyses were performed in FlowJo™ v.10 (https://www.flowjo.com/).

N.N.[Cl][Pt][Cl] [Cisplatin, cisplatin, reference compound]
apoptotic (Annexin V+/PI−) population (in words) (HSC-3 cells): small, but clearly apoptotic (Annexin V+/PI−) population | cell surface expression of calreticulin (in words) [1]: did not induce any cell surface expression of calreticulin
